# Test results: US20050020631A1, “3-Substituted benzofurans as therapeutic agents” (priority 2003, published 2005)
# Assays:
# [1] = target: T1, p101/p110γ protein (PI3Kγ) (Homo sapiens, UniProt P48736); experiment: PI3Kγ In Vitro Kinase Assay; assay type: biochemical; details: purified recombinant p101/p110γ with G protein β1/γ2 subunits; 20 μM ATP, [γ-32P-ATP]; 25 μM PIP2 lipid micelles; 20 minutes at room temperature
# T1 construct: HA; made in house; host or cells: Spodoptera frugiperda (Sf9) cells, baculovirus coinfection
# Experimental: Spodtera frugiperda cells, grown in ESF921 media, were coinfected with baculovirus expressing a glu-tagged p101 and baculovirus expressing an HA-tagged p110γ, at a 3:1 ratio of p101 baculovirus to p110γ baculovirus. Sf9 cells were grown to 1×10^7 total cells/mL in 10L bioreactors and harvested 48-72 hours post infection. Samples of infected cells were then tested for expression of p101/p110γ PI3 kinase by immunoprecipitation and Western Blot analysis methods (see below). To purify PI3Kγ, 4 volumes of room temperature hypotonic lysis buffer (1 mM MgCl2, 1 mM DTT, 5 mM EGTA, 1 mM Pefabloc, 0.5 μM aprotinin, 5 μM leupeptin, 2 μM pepstatin, 5 μM E64, pH 8) per gram of cell paste, was poured onto frozen cell pellets with stirring, then lysed in a nitrogen “bomb” at 400 psi (599HC […], Parr Instrument Co, Moline, Ill.). NaCl was added to 150 mM, and sodium cholate was added to 1% and mixed for another 45 minutes. The lysates were clarified by centrifugation for 25 minutes at 14,000 rpm. The lysates were then loaded over anti-glu-linked Protein-G Sepaharose beads (Covance Research Products, Richmond, Calif.) using 20 mL resin/50 g cell paste. The column was washed with 15 volumes of wash buffer (1 mM DTT, 0.2 mM EGTA, 1 mM Pefabloc, 0.5 μM aprotinin, 5 μM leupeptin, 2 μM pepstatin, 5 μM E64, 150 mM NaCl, 1% sodium cholate, pH 8). PI3Kγ was eluted with 6 column volumes of wash buffer that contain 100 μg/mL of a peptide that competes for binding of the glu tag. The column fractions with the eluted protein (determined by taking OD280 readings) were collected and dialyzed in 0.2 mM EGTA, 1 mM DTT, 1 mM Pefabloc, 5 μM leupeptin, 0.5% sodium cholate, 150 mM NaCl, and 50% glycerol, pH 8. The fractions were stored at -80° C. until further use. Spodtera frugiperda cells were coinfected with baculovirus expressing a glu-tagged G protein β1 and baculovirus expressing a G protein […], at a 1:1 ratio of glu-tagged G protein β1 baculovirus to G protein β2 baculovirus. Sf9 cells are grown in 10 L bioreactors and harvested 48-72 hours post infection. Samples of infected cells were tested for G protein β1/β2 expression by Western Blot analysis, as described below. Cell lysates were homogenized and loaded onto a column of glu-tagged beads as in Biological Example 1 and competed off the column with a glu peptide and processed as described in Biological Example 1. The inhibitory properties of the compounds in Table 1 were assayed in an in vitro PI3K assay. In a 96-well polypropylene plate, each well was spotted with 2 μL of 50 times the desired final concentration of compound in DMSO. Purified recombinant p101/p110γ protein (0.03 μg; 2.7 nM) and G protein β1/γ2 subunits (0.09 μg; 57.7 nM) for each reaction was combined in the assay buffer (30 mM HEPES, 100 mM NaCl, 1 mM EGTA, and 1 mM DTT). ATP and [γ-^32P-ATP] (0.09 μCi) were added to this mixture so that the final ATP concentration in the reaction was 20 μM. Lipid micelles were formed by sonicating phosphatidylinositol-4,5-diphosphate (PIP2), phosphatidylethanolamine (PE), and Na-cholate in the assay buffer for 10 minutes, adding MgCl2 and incubating on ice for 20 minutes, for final concentrations of 25 μM PIP2, 300 μM PE, 0.02% Na-cholate, and 10 mM MgCl2 in the reaction. The reactions were started by adding equal volumes lipid and enzyme mixture in a total volume of 50 μL, allowed to run for 20 minutes at room temperature, and stopped with 100 μL 75 mM H3PO4. The lipid product was transferred to a glass fiber filter plate and washed with 74 mM H3PO4 several times. The presence of radioactive lipid product (PIP3) was measured by adding Wallac Optiphase mix to each well and counting in a Wallac 1450 Trilux plate reader (PerkinElmer Life Sciences Inc., Boston, Mass. 02118). The IC50 for each compound tested is reported in μM in Table 1: […]
# T1 sequence (P48736 whole entry, species assumed): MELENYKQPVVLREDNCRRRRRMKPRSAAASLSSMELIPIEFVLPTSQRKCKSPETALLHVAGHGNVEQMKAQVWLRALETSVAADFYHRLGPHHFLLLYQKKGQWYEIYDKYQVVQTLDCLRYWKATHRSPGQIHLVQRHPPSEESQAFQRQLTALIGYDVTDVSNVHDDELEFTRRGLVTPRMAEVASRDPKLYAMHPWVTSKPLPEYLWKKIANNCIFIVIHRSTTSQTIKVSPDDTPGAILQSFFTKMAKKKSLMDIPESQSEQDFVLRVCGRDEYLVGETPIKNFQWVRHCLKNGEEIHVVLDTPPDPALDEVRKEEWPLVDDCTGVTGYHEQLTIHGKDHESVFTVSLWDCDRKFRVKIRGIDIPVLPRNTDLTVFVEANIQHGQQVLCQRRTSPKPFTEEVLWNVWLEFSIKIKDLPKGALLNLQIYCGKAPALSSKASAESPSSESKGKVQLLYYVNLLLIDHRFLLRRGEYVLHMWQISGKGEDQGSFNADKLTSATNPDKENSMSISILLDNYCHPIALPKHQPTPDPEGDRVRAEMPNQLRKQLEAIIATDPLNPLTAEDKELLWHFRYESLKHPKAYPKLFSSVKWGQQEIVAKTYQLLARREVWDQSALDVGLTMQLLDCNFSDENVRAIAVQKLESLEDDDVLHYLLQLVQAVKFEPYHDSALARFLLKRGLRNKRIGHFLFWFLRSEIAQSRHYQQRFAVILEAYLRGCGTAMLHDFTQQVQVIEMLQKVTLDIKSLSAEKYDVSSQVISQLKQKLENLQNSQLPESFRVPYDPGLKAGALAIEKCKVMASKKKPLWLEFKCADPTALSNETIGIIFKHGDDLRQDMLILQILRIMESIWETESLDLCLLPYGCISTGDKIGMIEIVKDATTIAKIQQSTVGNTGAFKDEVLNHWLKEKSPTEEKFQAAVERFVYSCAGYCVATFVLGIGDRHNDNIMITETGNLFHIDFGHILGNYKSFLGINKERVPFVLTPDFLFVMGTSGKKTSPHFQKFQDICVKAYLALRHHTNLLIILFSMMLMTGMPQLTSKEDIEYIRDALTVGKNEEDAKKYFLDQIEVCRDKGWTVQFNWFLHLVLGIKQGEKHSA
# T1 sequence (Q8WYR1 whole entry partner, species assumed): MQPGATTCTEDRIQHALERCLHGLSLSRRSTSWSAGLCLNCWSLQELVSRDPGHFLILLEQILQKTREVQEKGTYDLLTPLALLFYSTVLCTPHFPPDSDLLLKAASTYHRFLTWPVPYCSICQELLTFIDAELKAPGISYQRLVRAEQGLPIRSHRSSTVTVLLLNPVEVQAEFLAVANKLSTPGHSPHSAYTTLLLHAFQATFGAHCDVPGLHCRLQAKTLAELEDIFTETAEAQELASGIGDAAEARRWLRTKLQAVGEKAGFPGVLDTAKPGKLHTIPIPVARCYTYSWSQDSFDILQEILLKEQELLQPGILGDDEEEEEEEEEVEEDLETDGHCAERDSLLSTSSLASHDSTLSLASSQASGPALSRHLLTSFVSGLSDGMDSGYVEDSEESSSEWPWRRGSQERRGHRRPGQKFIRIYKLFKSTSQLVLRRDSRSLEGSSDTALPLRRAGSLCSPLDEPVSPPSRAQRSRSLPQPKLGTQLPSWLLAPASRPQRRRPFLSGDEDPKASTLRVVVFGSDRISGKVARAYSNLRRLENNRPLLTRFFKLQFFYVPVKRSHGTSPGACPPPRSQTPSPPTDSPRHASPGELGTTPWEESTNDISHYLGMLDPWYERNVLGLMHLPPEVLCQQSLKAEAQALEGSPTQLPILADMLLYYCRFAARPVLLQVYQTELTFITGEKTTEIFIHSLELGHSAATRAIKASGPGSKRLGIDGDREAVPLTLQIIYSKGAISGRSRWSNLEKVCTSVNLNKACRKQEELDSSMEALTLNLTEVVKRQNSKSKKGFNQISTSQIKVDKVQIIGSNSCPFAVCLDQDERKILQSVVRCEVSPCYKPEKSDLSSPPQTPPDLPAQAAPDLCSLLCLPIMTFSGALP
Compound,IC50 [1],melting point
3-Cycloheptylmethoxy-5-methoxy-benzofuran-2-carboxylic acid (1H-tetrazol-5-yl)-amide [Example 29],0.108 µM,–
3-Cycloheptyloxy-5-methoxy-benzofuran-2-carboxylic acid (1H-tetrazol-5-yl)-amide [Example 26],0.097 µM,–
5-Chloro-3(1-methyl-cyclopropoxymethoxy)-benzofuran-2-carboxylic acid (1H-tetrazol-5-yl)-amide [Example 34],1.46 µM,–
5-Methoxy-3-(1-methyl-cyclomethoxy)-benzofuran-2-carboxylic acid (1H-tetrazol-5-yl)-amide [Example 24],0.22 µM,–
5-Methoxy-3-(6-methyl-cyclohex-3-enylmethoxy)-benzofuran-2-carboxylic acid (1H-tetrazol-5-yl)-amide [Example 16],0.185 µM,–
"COc1ccc2oc(C(=O)Nc3nnn[nH]3)c(OC3CCCCC3C)c2c1 (stereo not drawn) [Example 5, 5-Methoxy-3-(2-methyl-cyclohexyloxy)-benzofuran-2-carboxylic acid (1H-tetrazol-5-yl)-amide]",0.18 µM,–
"C=C(C)C1CCC(C)C(Oc2c(C(=O)Nc3nnn[nH]3)oc3ccc(OC)cc23)C1 (stereo not drawn) [Example 7, 3-(5-Isopropenyl-2-methyl-cyclohexyloxy)-5-methoxy-benzofuran-2-carboxylic acid (1H-tetrazol-5-yl)-amide]",0.7 µM,–
"COc1ccc2oc(C(=O)Nc3nnn[nH]3)c(OC3CCCC3C)c2c1 (stereo not drawn) [Example 8, 5-Methoxy-3-(2-methyl-cyclopentyloxy)-benzofuran-2-carboxylic acid (1H-tetrazol-5-yl)-amide]",0.305 µM,–
"COc1ccc2oc(C(=O)Nc3nnn[nH]3)c(OC3CCCC(C)C3)c2c1 (stereo not drawn) [Example 14, 5-Methoxy-3-(3-methyl-cyclohexyloxy)-benzofuran-2-carboxylic acid (1H-tetrazol-5-yl)-amide]",0.067 µM,–
"COc1ccc2oc(C(=O)Nc3nnn[nH]3)c(OC3CC(C)CC(C)C3)c2c1 (stereo not drawn) [Example 17, 3-(3,5-Dimethyl-cyclohexyloxy)-5-methoxy-benzofuran-2-carboxylic acid (1H-tetrazol-5-yl)-amide]",0.1 µM,–
"COc1ccc2oc(C(=O)Nc3nnn[nH]3)c(OC3CCCCC3C)c2c1 (stereo not drawn) [Example 18, 5-Methoxy-3-(2-methyl-cyclohexyloxy)-benzofuran-2-carboxylic acid (1H-tetrazol-5-yl)-amide]",0.13 µM,–
"O=C(Nc1nnn[nH]1)c1oc2ccc(Cl)cc2c1OCC1CCC1 [Example 35, 5-Chloro-3-cyclobutylmethoxy-benzofuran-2-carboxylic acid (1H-tetrazol-5-yl)-amide]",3.1 µM,–
"O=C(Nc1nnn[nH]1)c1oc2ccc(Cl)cc2c1OC1CCCCCC1 [Example 36, 5-Chloro-3-cycloheptyloxy-benzofuran-2-carboxylic acid (1H-tetrazol-5-yl)-amide]",0.95 µM,–
"O=C(Nc1nnn[nH]1)c1oc2ccc(Cl)cc2c1OC1CCC1 [Example 37, 5-Chloro-3-cyclobutoxy-benzofuran-2-carboxylic acid (1H-tetrazol-5-yl)-amide]",2.02 µM,–
"O=C(Nc1nnn[nH]1)c1oc2ccc(Cl)cc2c1OCC1CCCC1 [Example 38, 5-Chloro-3cyclopentylmethoxy-benzofuran-2-carboxylic acid (1H-tetrazol-5-yl)-amide]",1.04 µM,–
"CC(Oc1c(C(=O)Nc2nnn[nH]2)oc2ccc(Cl)cc12)C1CCCC1 (stereo not drawn) [Example 39, 5-Chloro-3-(1-cyclopentyl-ethoxy)-benzofuran-2-carboxylic acid (1H-tetrazol-5-yl)-amide]",2.7 µM,–
"CC1CCC(Oc2c(C(=O)Nc3nnn[nH]3)oc3ccc(Cl)cc23)CC1C (stereo not drawn) [Example 40, 5-Chloro-3-(3,4-dimethyl-cyclohexyloxy)-benzofuran-2-carboxylic acid (1H-tetrazol-5-yl)-amide]",1.09 µM,–
"CC1CC(C)CC(Oc2c(C(=O)Nc3nnn[nH]3)oc3ccc(Cl)cc23)C1 (stereo not drawn) [Example 41, 5-Chloro-3-(3,5-dimethyl-cyclohexyloxy)-benzofuran-2-carboxylic acid (1H-tetrazol-5-yl)-amide]",0.48 µM,–
"O=C(Nc1nnn[nH]1)c1oc2ccc(Cl)cc2c1OC1CCCCC1 [Example 42, 5-Chloro-3-cyclohexyloxy-benzofuran-2-carboxylic acid (1H-tetrazol-5-yl)-amide]",0.645 µM,–
"O=C(Nc1nnn[nH]1)c1oc2ccc(Cl)cc2c1OCC1CC1 [Example 44, 5-Chloro-3-cyclopropylmethoxy-benzofuran-2-carboxylic acid (1H-tetrazol-5-yl)-amide]",9.43 µM,243 to 244 °C
